Earlier results on 3 substances are cited in patent publication US8748570B2, “Insulin analogues” (priority 2010, dated 2014).

Read-outs that look alike come from different tables or passages of the source.

Data set [1] has as its system cultured human lymphocytes.
The target of the next data set is IGF-IR (Homo sapiens, UniProt P08069).

In the case of “A7, B7-(2,7-diaminosuberoyl]-des-(B26-B30)-insulin B25-amide [dicarba-A7-B7-insulin]”, the EC50 with isolated rat adipocytes (lipogenesis, read-out: ED50 (the source's name)) is 4.8 nM. For the same substance, the “relative potency compared to human insulin” value in the data set on isolated rat adipocytes (on a molar basis) is on record as 0.66%; in the data set on isolated rat adipocytes (on a weight basis), 0.72%. For the same substance, the Relative binding affinity in data set [1] is 0.1 % of human insulin.

Turning to “Glargine insulin: long-acting insulin: two arginines added to the B-chain C-terminus, glycine at A21”, under “in vivo”, the duration of activity was 24 h and the “peak time of effect” value was “no peak effect”. Also, the IGF-IR binding result with IGF-IR was “enhanced”.

As for “detemir: long-acting insulin with a fatty acid chain on the ε-amino group of LysB29”, the in vivo potency entry was “reduced”.
